Numbering of substitutions follows the chain as printed.
Tests used:
Assay in all cases: Nucleotide binding affinity by intrinsic fluorescence, mutant
Design in all cases: The coding region (residue Q20-L756) of Am2136 without signal peptide was based on UniProt; 6XHis (N); made in house; host or cells: E. coli BL21 (DE3)
Am2136 R592A = target: T1, Am2136 R592A (Akkermansia muciniphila, UniProt B2UPR7, R592A)
T1 sequence (B2UPR7 20-756 R592A): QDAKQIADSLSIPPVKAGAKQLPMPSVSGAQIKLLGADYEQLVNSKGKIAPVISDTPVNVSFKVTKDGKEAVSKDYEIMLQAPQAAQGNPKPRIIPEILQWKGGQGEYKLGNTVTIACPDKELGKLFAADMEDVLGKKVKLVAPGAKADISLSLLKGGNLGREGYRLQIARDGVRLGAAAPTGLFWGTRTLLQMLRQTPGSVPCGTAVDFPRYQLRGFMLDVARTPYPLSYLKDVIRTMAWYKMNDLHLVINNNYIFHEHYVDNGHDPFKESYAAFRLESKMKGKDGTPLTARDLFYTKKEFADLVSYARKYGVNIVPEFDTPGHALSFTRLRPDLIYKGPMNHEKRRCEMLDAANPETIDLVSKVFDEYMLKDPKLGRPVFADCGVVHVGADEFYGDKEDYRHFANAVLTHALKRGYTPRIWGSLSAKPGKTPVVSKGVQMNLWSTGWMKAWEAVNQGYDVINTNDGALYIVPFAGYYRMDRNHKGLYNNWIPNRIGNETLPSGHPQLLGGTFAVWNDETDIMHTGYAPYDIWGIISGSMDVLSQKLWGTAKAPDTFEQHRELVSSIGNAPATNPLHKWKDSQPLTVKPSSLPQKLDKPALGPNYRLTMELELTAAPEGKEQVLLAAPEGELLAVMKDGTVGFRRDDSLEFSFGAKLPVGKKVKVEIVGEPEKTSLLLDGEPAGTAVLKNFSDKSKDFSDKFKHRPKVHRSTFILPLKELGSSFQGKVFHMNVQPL
Experimental: (§1) The nucleotide binding ability was determined on Fluorescence Spectrometer Duetta (HORIBA) by measuring the change of peak intensity. The fluorescence was excited at 286 nm and emitted at 336 nm. And the measurement was processed under 400 V voltage with 2.5 nm excitation slit and 5 nm emission slit. The 120 μL reaction mixture contains 0–550 μM nucleotide, 5 μM proteins, 25 mM Tris pH 8.0 and 150 mM NaCl. The sample was incubated at 4°C for 5 min before testing.

Am2136 R256A = target: T2, Am2136 R256A (Akkermansia muciniphila, UniProt B2UPR7, R256A)
T2 sequence (B2UPR7 20-756 R256A): T1 sequence (B2UPR7 20-756 R592A) with R237A, A573R
Experimental: as §1

Am2136 Y550A = target: T3, Am2136 Y550A (Akkermansia muciniphila, UniProt B2UPR7, Y550A)
T3 sequence (B2UPR7 20-756 Y550A): T1 sequence (B2UPR7 20-756 R592A) with Y531A, A573R
Experimental: as §1

Nc1nc2c(ncn2[C@@H]2O[C@H](COP(=O)(O)OP(=O)(O)O)[C@@H](O)[C@H]2O)c(=O)[nH]1 [GDP]
Kd (Am2136 R592A): 120 ± 5.82 µM | Kd (Am2136 R256A): 158 ± 10.9 µM | Kd (Am2136 Y550A): 193 ± 7.36 µM
